Measurements published in patent US6664231B1, “Anti-fungal peptides” (priority 1993, dated 2003).

Key:
[1] = test system: Candida albicans SLU-1; experiment: Radial diffusion assay (Example 3), wild type strain; type: cell-based; details: FIG. 2A
Protocol: For the radial diffusion assays, Candida albicans SLU-1 were grown as described above and SLU-2G were grown overnight in Sabouraud dextrose broth supplemented with 10 μg/mL amphotericin B and 5 μg/mL ceftriaxone at 37° C. Cultures were diluted 1:25 into fresh, unsupplemented broth and allowed to grow for 5 hours at 37° C. Cells were pelleted at 1,500×g for 5 minutes at 4° C. Supernatant was decanted and replaced with 5 mL of 10 mM phosphate buffer, pH 7.4. After centrifugation the cell pellets were resuspended with 5 mL phosphate buffer for an OD570 determination. One OD570 for SLU-1 cells was 3×10^7 CFU/mL and for SLU-2G cells was 5×10^6 CFU/mL.
Cells were added to 10 mL of molten, cooled (˜45° C.) underlayer agarose to a concentration of 1×10^6/mL and the suspension was poured into a level square petri plate with gentle rocking to allow even distribution and solidification to a uniform thickness of about 1 mm. Wells were cut into the hardened agarose with a sterilize, 3 mm diameter punch with vacuum.
Peptides were two-fold serially diluted with DPBS from a starting concentration of approximately 1 mg/mL. Amphotericin B and nystatin were similarly diluted starting at 100 and 225 μg/mL, respectively. Five μL were added per well and allowed to diffuse at 37° C. for 1.5-2.0 hours. Then 10 mL of molten overlayer agarose were added and the plates were incubated inverted at 37° C. overnight. Plates were stained with a dilute Coomassie solution, inhibition zones were measured with calipers and net areas were calculated, then converted to pmol values by PROBIT analysis. The results of a representative experiment are shown in FIG. 2A for the SLU-1 strain and FIG. 2B for the SLU-2G strain. In FIGS. 2A and 2B, the fungicidal activity is represented for XMP.13 as open circles; for XMP.37 as closed circles; for XMP.97 as open triangles; for XMP.127 as closed triangles; for amphotericin B as open squares; and for nystatin as closed squares. The pmol for a 30 mm^2 zone of inhibition were calculated to be: for XMP.13, 689 pmol against SLU-1 and 129 pmol against SLU-2G; for XMP.37, 231 pmol against SLU-1 and 75 pmol against SLU-2G; for XMP.97, 670 pmol against SLU-1 and 161 pmol against SLU-2G; for XMP.127, 935 pmol against SLU-1 and 116 pmol against SLU-2G; for amphotericin B, 36 pmol against SLU-1 and >541 pmol for SLU-2G; and for nysttin, 98 pmol against SLU-1 and >1,215 pmol against SLU-2G.

[2] = test system: C. albicans (SLU-1 strain); experiment: Survival of mice systemically infected with Candida albicans; type: in vivo, mouse
Protocol: Groups of 15 male DBA/2J mice at age 6-8 weeks (Jackson Laboratory, Bar Harbor, Me.) were inoculated with 1.24×10^5 C. albicans (SLU-1 strain as described in Example 2) by intravenous injection into the tail vein. Cells were prepared for animal injection as follows. A single colony was selected and used to inoculate a 5 mL tube of Sabouraud dextrose broth. Incubation was at 30° C. with shaking to allow aeration for a period of 15-18 hours. Four mL of the overnight culture were added to 100 mL of fresh Sabouraud dextrose broth (1:25 dilution) and incubated for 4 hours. The 100 mL culture was pelleted at 1,500×g for 5 minutes. Cells were washed twice by adding 20 mL D-PBS, vortexing and re-centrifuging. Cells were collected in one tube and a sample is diluted 1:10 to be measured by OD570 (1 OD unit=3×10^7 CFU/mL). The cells were diluted to the desired dose in D-PBS and kept at 4° C. until used. Doses were confirmed by performing serial ten-fold dilutions and plating 50 μl per dilution on Sabouraud dextrose agar. Colonies were counted the following day after overnight incubation at 37° C. A […] culture yielded approximately 1×10^9 CFU/mL.
Immediately after fungal challenge, the mice were intravenously injected via the tail vein with a 0.1 mL volume of 10 mg/kg XMP.36, 5 mg/kg XMP.97, 10 mg/kg XMP.102, 1 mg/kg amphotericin B (Sigma, St. Louis, Mo.), or phosphate buffered saline (PBS) as a control. Treatment with the same amounts of peptides, amphotericin B or PBS was repeated at Day 2 and Day 4 (except that the second dose of XMP.36 was given at a dose of 5 mg/kg). Mice were monitored twice daily for mortality until termination of the study at Day 28. […] In FIG. 4, the symbol “X” represents survival after treatment with amphotericin B; open squares, treatment with XMP.97; open circles, treatment with XMP.36; open diamonds, treatment with XMP.102; and open triangles, treatment with buffer. Statistical significance was evaluated using the Lifetest Survival Curve analysis. [Lawless, Statistical Models and Methods for Lifetime Data, John Wiley & Sons, New York (1982).] The duration and almost linear decline in survival is analogous to human opportunistic candidiasis.
In additional 3-dose studies, groups of 15 mice were injected with a fungal challenge of 0.5×10^5 Candida cells, prepared for injection as described above, followed by treatment at Day 0, Day 2 and Day 5 with a 0.1 mL volume of 10 mg/kg XMP.127, 5 mg/kg XMP.13, 5 mg/kg XMP.37, 1 mg/kg amphotericin B, or PBS as a control. […] In FIG. 5, the symbol “X” represents survival after treatment with amphotericin B; open circles, treatment with XMP.127; filled triangles, treatment with buffer; open squares, treatment with XMP.37; open triangles, treatment with XMP.13.
Further studies to determine the effectiveness of anti-fungal peptides were performed at an increased dosing regimen (6 doses rather than 3 doses as described above). Groups of 9 week-old male DBA/2J mice were inoculated with concentrations of 2.7×10^5 Candida cells (prepared as described above) by intravenous injection in the tail vein. Immediately after fungal challenge, the mice were treated with a 0.1 mL volume of 10 mg/kg XMP.284, 1 mg/kg amphotericin B or PBS as a control at Day 0, Day 2, Day 4, Day 7, Day 9 and Day 11. All amphotericin B-treated animals were protected.
Additional 6-dose experiments were conducted as described above, using inocula of 0.5-3.0×10^5 Candida cells and using 0.01, 0.05, 0.1, 0.5, 1.0 or 5.0 mg/kg doses of peptide.

[3] = 0.5×10^5 Candida cells, doses Day 0, 2, 5, 10 mg/kg XMP.127, 5 mg/kg XMP.13, 5 mg/kg XMP.37, 1 mg/kg amphotericin B, FIG. 5
[4] = 2.7×10^5 Candida cells, 10 mg/kg, 6 doses (Day 0, 2, 4, 7, 9, 11), FIG. 6

Row | Molecule | pmol for a 30 mm^2 zone of inhibition against SLU-1 [1] [pmol] | mice survived until Day 28 [2, 3] [%] | survival at Day 6 [2, 4] [%] | survival at Day 24 [2, 4] [%] | mice survived until Day 28 ([2]; 1.24×10^5 C. albicans i.v., 3 doses i.v. (Day 0, 2, 4), 10 mg/kg XMP.36, 5 mg/kg XMP.97, 10 mg/kg XMP.102, 1 mg/kg amphotericin B, FIG. 4) [%] | protection of animals (6-dose study) ([2]; 2.7×10^5 Candida cells, 1 mg/kg, 6 doses)
1 | H-KSKVGWAIQLFHKK-NH2 [XMP.37] | 231 | 33 |  |  |  | 
2 | H-KSKVGWLIQLFHKK-NH2 [XMP.13] | 689 | 20 |  |  |  | 
3 | H-SKVKWLIQLFHKK-NH2 [XMP.284] |  |  | 87 | 33 |  | 
4 | C[C@@H]1[C@H](O)[C@@H](C)/C=C/C=C/C=C/C=C/C=C/C=C/C=C/[C@H](O[C@@H]2O[C@H](C)[C@@H](O)[C@H](N)[C@@H]2O)C[C@@H]2O[C@](O)(C[C@@H](O)C[C@@H](O)[C@H](O)CC[C@@H](O)C[C@@H](O)CC(=O)O[C@H]1C)C[C@H](O)[C@H]2C(=O)O [Amphotericin B, amphotericin B, reference compound] | 36 | 100 |  |  | 100 | protected
